ChEMBL document CHEMBL6182867, “Discovery of ultra short β-peptoids with selective activity against drug-resistant Mycobacterium tuberculosis” (Eur J Med Chem, 2025)

Experiments:
Assay type in all cases: functional
[1] = test system: Mycobacterium tuberculosis; test: Antitubercular activity against rifampin-resistant Mycobacterium tuberculosis H37Rv by microplate alamar blue assay
[2] = test system: Mycobacterium tuberculosis; test: Antitubercular activity against isoniazid-resistant Mycobacterium tuberculosis H37Rv by microplate alamar blue assay
[3] = test system: Mycobacterium tuberculosis; test: Antitubercular activity against Mycobacterium tuberculosis H37Rv harboring LuxABCDE assessed as reduction in luminescence supplemented with fresh medium containing compound on day 2 and 5 by luminescence assay; conditions: 120 h, time 5 day
[4] = test system: Mycobacterium tuberculosis; test: Synergistic antitubercular activity against Mycobacterium tuberculosis bedaquiline-resistant mutant 7 assessed as bedaquiline MIC=>90 at 0.8 ug/ml by microplate alamar blue assay (Rvb >2 uM); conditions: dose 0.8 µg/ml
[5] = test system: Mycobacterium tuberculosis; test: Synergistic antitubercular activity against Mycobacterium tuberculosis bedaquiline-resistant mutant H15 assessed as bedaquiline MIC=>90 at 0.8 ug/ml by microplate alamar blue assay (Rvb >2 uM); conditions: dose 0.8 µg/ml
[6] = test system: Mycobacterium tuberculosis; test: Synergistic antitubercular activity against Mycobacterium tuberculosis bedaquiline-resistant mutant H15 assessed as bedaquiline growth inhibition at 0.8 ug/ml by microplate alamar blue assay (reference value: 75%); conditions: dose 0.8 µg/ml
[7] = test system: Mycobacterium tuberculosis; test: Synergistic antitubercular activity against Mycobacterium tuberculosis rifampin-resistant mutant assessed as rifampin MIC=>90 at 0.8 ug/ml by microplate alamar blue assay (Rvb >1 uM); conditions: dose 0.8 µg/ml
[8] = test system: Mycobacterium tuberculosis; test: Synergistic antitubercular activity against Mycobacterium tuberculosis rifampin-resistant mutant assessed as rifampin growth inhibition at 0.8 ug/ml by microplate alamar blue assay (reference value: 46%); conditions: dose 0.8 µg/ml
[9] = test system: Mycobacterium tuberculosis; test: Synergistic antitubercular activity against Mycobacterium tuberculosis isoniazid-resistant mutant assessed as isoniazid MIC=>90 at 0.8 ug/ml by microplate alamar blue assay (Rvb >8 uM); conditions: dose 0.8 µg/ml
[10] = test system: Mycobacterium tuberculosis; test: Synergistic antitubercular activity against Mycobacterium tuberculosis isoniazid-resistant mutant assessed as isoniazid growth inhibition at 0.8 ug/ml by microplate alamar blue assay (reference value: 0%); conditions: dose 0.8 µg/ml
[11] = test system: Mycobacterium tuberculosis; test: Synergistic antitubercular activity against Mycobacterium tuberculosis bedaquiline-resistant mutant 7 assessed as bedaquiline MIC=>90 at 0.4 ug/ml by microplate alamar blue assay (reference value: 0.9 uM); conditions: dose 0.4 µg/ml
[12] = test system: Mycobacterium tuberculosis; test: Synergistic antitubercular activity against Mycobacterium tuberculosis bedaquiline-resistant mutant H15 assessed as bedaquiline MIC=>90 at 0.4 ug/ml by microplate alamar blue assay (Rvb >2 uM); conditions: dose 0.4 µg/ml
[13] = test system: Mycobacterium tuberculosis; test: Synergistic antitubercular activity against Mycobacterium tuberculosis bedaquiline-resistant mutant H15 assessed as bedaquiline growth inhibition at 0.4 ug/ml by microplate alamar blue assay (reference value: 75%); conditions: dose 0.4 µg/ml
[14] = test system: Mycobacterium tuberculosis; test: Synergistic antitubercular activity against Mycobacterium tuberculosis rifampin-resistant mutant assessed as rifampin MIC=>90 at 0.4 ug/ml by microplate alamar blue assay (Rvb >1 uM); conditions: dose 0.4 µg/ml
[15] = test system: Mycobacterium tuberculosis; test: Synergistic antitubercular activity against Mycobacterium tuberculosis rifampin-resistant mutant assessed as rifampin growth inhibition at 0.4 ug/ml by microplate alamar blue assay (reference value: 46%); conditions: dose 0.4 µg/ml
[16] = test system: Mycobacterium tuberculosis; test: Synergistic antitubercular activity against Mycobacterium tuberculosis isoniazid-resistant mutant assessed as isoniazid MIC=>90 at 0.4 ug/ml by microplate alamar blue assay (Rvb >8 uM); conditions: dose 0.4 µg/ml
[17] = test system: Mycobacterium tuberculosis; test: Synergistic antitubercular activity against Mycobacterium tuberculosis isoniazid-resistant mutant assessed as isoniazid growth inhibition at 0.4 ug/ml by microplate alamar blue assay (reference value: 0%); conditions: dose 0.4 µg/ml

Question: How did the MIC90 [1] turn out when CC(C)N(C(=O)CCNCCC(c1ccccc1)c1ccccc1)C(C)C was run?
Answer: 3.32 µg/mL

Question: What about the MIC90 [2] of the same compound?
Answer: 3.01 µg/mL

Question: What about the EC90 [3] of the same compound?
Answer: 9.93 µg/mL

Question: And the MIC [4]?
Answer: 0.53 µM

Question: And the MIC [5]?
Answer: >2 µM

Question: What about the “growth inhibition (GI)” value [6] of the same compound?
Answer: 76%

Question: What about the MIC [7] of the same compound?
Answer: >1 µM

Question: What about the “growth inhibition (GI)” value [8] of the same compound?
Answer: 60%

Question: And the MIC [9]?
Answer: >8 µM

Question: And the “growth inhibition (GI)” value [10]?
Answer: 17%

Question: With CC(C)N(C(=O)CCNCCCC1CCCC1)C(C)C as the compound, how does the MIC90 [1] read?
Answer: 1.78 µg/mL

Question: What about the MIC90 [2] of the same compound?
Answer: 1.87 µg/mL

Question: What about the EC90 [3] of the same compound?
Answer: 9.67 µg/mL

Question: What about the MIC [11] of the same compound?
Answer: 0.91 µM

Question: And the MIC [12]?
Answer: >2 µM

Question: What about the “growth inhibition (GI)” value [13] of the same compound?
Answer: 72%

Question: And the MIC [14]?
Answer: >1 µM

Question: What about the “growth inhibition (GI)” value [15] of the same compound?
Answer: 47%

Question: What about the MIC [16] of the same compound?
Answer: >8 µM

Question: What about the “growth inhibition (GI)” value [17] of the same compound?
Answer: 0%

Question: For COc1nc2ccc(Br)cc2cc1[C@@H](c1ccccc1)[C@@](O)(CCN(C)C)c1cccc2ccccc12 [BEDAQUILINE], which EC90 [3] is on record?
Answer: 360 nM

Question: Which results are given for NNC(=O)c1ccncc1 [ISONIAZID]?
Answer: MIC90 [1]: 0.32 µM; MIC90 [2]: > 8 µM

Question: Which MIC90 [1] does the source give for CC(=O)NC[C@H]1CN(c2ccc(N3CCOCC3)c(F)c2)C(=O)O1 [LINEZOLID] here?
Answer: 1.14 µM

Question: What about the MIC90 [2] of the same compound?
Answer: 0.94 µM

Question: CO[C@H]1/C=C/O[C@@]2(C)Oc3c(C)c(O)c4c(O)c(c(/C=N/N5CCN(C)CC5)c(O)c4c3C2=O)NC(=O)/C(C)=C\C=C\[C@H](C)[C@H](O)[C@@H](C)[C@@H](O)[C@@H](C)[C@H](OC(C)=O)[C@@H]1C [RIFAMPIN] was tested. Which MIC90 [1] did it give?
Answer: > 1 µM

Question: And the MIC90 [2]?
Answer: 0.03 µM
